Measured values: ChEMBL document CHEMBL1208746, “3-Cyano-5-fluoro-N-arylbenzamides as negative allosteric modulators of mGlu(5): Identification of easily prepared tool compounds with CNS exposure in rats” (Bioorg Med Chem Lett, 2010)
The source made the active and inactive calls. The calls are words filed in the database; no cut-off is given here.

Key:
[1] = target: T1, Metabotropic glutamate receptor 5 (Rattus norvegicus, UniProt P31424); assay: Antagonist activity at rat mGlu5 receptor expressed in HEK293A cells assessed as inhibition of glutamate-induced calcium mobilization; type: functional, cell-based, HEK293-A
[2] = target: Metabotropic glutamate receptor 5 (Rattus norvegicus) (UniProt P31424); assay: Antagonist activity at rat mGlu5 receptor expressed in HEK293A cells assessed as inhibition of glutamate-induced calcium mobilization at 30 uM relative to glutamate; type: functional, cell-based; settings: HEK293-A
[3] = target: T1, Metabotropic glutamate receptor 5; assay: Displacement of [3H]methoxy-PEPy from rat mGlu5 receptor expressed in HEK293A cells after 60 mins by scintillation counting; type: cell-based, HEK293-A
[4] = target: Metabotropic glutamate receptor 1 (Homo sapiens) (UniProt Q13255); assay: Inhibition of mGlu1 receptor at 10 uM
[5] = target: Metabotropic glutamate receptor 2 (Homo sapiens) (UniProt Q14416); assay: Inhibition of mGlu2 receptor at 10 uM
[6] = target: Metabotropic glutamate receptor 3 (Homo sapiens) (UniProt Q14832); assay: Inhibition of mGlu3 receptor at 10 uM
[7] = target: Metabotropic glutamate receptor 4 (Homo sapiens) (UniProt Q14833); assay: Inhibition of mGlu4 receptor at 10 uM
[8] = target: Metabotropic glutamate receptor 7 (Homo sapiens) (UniProt Q14831); assay: Inhibition of mGlu7 receptor at 10 uM
[9] = target: Metabotropic glutamate receptor 8 (Homo sapiens) (UniProt O00222); assay: Inhibition of mGlu8 receptor at 10 uM
[10] = Metabolic stability in rat liver microsomes assessed as compound remaining at 1 uM after 15 mins in presence of NADPH; type: ADME, Microsome; settings: read-out: Stability
[11] = Metabolic stability in human liver microsomes assessed as compound remaining at 1 uM after 15 mins in presence of NADPH; type: ADME, Microsome; settings: read-out: Stability
Plasma [12] = assay: Protein binding in rat plasma by rapid equilibrium dialysis method; type: ADME, cell-free
Plasma [13] = assay: Protein binding in human plasma by rapid equilibrium dialysis method; type: ADME, cell-free
Plasma [14] = assay: Cmax in Sprague-Dawley rat plasma at 10 mg/kg, ip after 0.25 to 4 hrs; type: ADME, organism-based; design: dose 10 mg/kg, route intraperitoneal; settings: in vivo
[15] = Cmax in Sprague-Dawley rat brain at 10 mg/kg, ip after 0.25 to 4 hrs; type: ADME, organism-based; design: dose 10 mg/kg, route intraperitoneal
Plasma [16] = assay: Tmax in Sprague-Dawley rat plasma at 10 mg/kg, ip after 0.25 to 4 hrs; type: ADME, organism-based; design: dose 10 mg/kg, route intraperitoneal; settings: in vivo
Brain = assay: Tmax in Sprague-Dawley rat brain at 10 mg/kg, ip after 0.25 to 4 hrs; type: ADME, organism-based; design: dose 10 mg/kg, route intraperitoneal; settings: in vivo
[17] = AUC (0-4 hrs) in Sprague-Dawley rat plasma at 10 mg/kg, ip; type: ADME, organism-based; design: time < 4 hr, dose 10 mg/kg, route intraperitoneal
[18] = AUC (0-4 hrs) in Sprague-Dawley rat brain at 10 mg/kg, ip; type: ADME, organism-based; design: time < 4 hr, dose 10 mg/kg, route intraperitoneal
[19] = Ratio of drug level brain to plasma in Sprague-Dawley rat at 10 mg/kg, ip; type: ADME, organism-based; design: dose 10 mg/kg, route intraperitoneal; settings: brain and plasma

Metabotropic glutamate receptor 4 (Homo sapiens), sequence (Q14833 whole entry): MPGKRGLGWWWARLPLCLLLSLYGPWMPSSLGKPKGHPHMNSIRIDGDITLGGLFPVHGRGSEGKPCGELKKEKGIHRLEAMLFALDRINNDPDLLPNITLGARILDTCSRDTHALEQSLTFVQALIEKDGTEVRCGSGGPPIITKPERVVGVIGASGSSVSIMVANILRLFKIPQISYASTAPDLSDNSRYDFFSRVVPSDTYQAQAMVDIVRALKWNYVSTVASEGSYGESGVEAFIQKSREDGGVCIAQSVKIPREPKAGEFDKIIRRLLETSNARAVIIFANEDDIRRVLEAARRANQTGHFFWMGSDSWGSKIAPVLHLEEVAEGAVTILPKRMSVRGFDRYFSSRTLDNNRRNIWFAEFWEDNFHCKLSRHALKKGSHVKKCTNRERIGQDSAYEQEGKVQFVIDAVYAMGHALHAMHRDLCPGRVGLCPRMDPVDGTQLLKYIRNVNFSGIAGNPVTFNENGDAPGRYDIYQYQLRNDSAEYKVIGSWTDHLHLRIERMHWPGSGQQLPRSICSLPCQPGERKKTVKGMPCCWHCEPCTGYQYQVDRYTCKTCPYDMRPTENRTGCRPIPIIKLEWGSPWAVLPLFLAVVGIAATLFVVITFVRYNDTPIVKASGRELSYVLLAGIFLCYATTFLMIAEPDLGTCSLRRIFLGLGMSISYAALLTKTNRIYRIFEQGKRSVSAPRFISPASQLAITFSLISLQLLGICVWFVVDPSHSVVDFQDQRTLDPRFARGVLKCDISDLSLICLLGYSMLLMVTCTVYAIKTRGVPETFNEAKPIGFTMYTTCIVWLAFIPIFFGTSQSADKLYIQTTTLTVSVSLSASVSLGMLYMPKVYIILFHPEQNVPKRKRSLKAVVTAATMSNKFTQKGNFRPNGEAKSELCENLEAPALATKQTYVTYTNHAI
Metabotropic glutamate receptor 3 (Homo sapiens), sequence (Q14832 23-879 limits assumed): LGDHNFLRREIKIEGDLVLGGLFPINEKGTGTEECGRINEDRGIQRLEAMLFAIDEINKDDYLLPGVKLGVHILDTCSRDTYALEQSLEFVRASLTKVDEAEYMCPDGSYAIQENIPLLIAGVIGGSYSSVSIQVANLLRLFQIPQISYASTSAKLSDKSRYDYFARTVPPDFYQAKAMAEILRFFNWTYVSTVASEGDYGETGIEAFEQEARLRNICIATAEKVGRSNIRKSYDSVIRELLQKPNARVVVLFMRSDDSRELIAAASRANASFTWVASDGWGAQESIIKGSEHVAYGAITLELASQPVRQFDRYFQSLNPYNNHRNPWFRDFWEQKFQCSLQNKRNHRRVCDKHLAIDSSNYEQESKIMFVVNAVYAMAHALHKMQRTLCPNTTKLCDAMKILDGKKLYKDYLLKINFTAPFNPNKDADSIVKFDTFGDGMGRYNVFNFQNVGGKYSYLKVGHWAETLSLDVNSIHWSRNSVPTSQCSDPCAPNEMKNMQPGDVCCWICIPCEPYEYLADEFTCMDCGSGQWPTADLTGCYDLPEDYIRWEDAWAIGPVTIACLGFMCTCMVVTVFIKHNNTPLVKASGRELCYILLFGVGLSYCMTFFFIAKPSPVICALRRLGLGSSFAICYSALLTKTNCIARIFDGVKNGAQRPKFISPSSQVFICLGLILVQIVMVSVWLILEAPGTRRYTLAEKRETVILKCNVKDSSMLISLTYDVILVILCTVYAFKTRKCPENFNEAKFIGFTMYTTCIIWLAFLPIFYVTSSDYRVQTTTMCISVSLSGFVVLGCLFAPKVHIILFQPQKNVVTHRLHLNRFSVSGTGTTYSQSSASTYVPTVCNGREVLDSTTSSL
Metabotropic glutamate receptor 5 (Rattus norvegicus), sequence (P31424 21-1203 limits assumed): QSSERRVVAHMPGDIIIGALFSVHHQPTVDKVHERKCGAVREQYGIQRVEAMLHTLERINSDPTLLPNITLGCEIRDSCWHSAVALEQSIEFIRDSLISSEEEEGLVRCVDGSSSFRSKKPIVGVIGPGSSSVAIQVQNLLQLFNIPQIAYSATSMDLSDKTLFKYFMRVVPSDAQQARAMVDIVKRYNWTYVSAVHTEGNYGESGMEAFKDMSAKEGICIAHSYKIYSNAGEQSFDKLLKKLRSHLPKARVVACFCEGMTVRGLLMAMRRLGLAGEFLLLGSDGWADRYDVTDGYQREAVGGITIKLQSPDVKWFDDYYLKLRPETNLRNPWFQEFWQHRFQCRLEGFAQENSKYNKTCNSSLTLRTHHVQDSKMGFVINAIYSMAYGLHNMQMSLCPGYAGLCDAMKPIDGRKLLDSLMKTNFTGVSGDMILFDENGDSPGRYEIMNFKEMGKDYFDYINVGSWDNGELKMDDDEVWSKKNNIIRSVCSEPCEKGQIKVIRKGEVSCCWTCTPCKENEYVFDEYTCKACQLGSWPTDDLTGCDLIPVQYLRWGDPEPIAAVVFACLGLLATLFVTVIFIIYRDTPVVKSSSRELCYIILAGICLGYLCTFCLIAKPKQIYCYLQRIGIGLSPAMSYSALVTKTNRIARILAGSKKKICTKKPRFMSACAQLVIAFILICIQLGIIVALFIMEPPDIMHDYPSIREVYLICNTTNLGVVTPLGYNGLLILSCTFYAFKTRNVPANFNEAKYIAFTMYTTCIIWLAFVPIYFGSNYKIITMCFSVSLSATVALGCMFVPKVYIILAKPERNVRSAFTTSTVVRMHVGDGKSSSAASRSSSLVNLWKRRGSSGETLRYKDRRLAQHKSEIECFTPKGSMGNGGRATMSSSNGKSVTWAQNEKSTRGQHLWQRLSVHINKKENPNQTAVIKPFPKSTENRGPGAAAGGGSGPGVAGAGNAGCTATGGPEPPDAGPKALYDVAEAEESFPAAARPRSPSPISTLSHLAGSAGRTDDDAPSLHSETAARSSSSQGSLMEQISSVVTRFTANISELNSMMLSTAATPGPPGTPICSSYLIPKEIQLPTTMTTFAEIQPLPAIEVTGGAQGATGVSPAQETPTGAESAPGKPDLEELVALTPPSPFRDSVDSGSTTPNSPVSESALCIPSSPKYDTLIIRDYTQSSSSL
Metabotropic glutamate receptor 1 (Homo sapiens), sequence (Q13255 19-1194 limits assumed): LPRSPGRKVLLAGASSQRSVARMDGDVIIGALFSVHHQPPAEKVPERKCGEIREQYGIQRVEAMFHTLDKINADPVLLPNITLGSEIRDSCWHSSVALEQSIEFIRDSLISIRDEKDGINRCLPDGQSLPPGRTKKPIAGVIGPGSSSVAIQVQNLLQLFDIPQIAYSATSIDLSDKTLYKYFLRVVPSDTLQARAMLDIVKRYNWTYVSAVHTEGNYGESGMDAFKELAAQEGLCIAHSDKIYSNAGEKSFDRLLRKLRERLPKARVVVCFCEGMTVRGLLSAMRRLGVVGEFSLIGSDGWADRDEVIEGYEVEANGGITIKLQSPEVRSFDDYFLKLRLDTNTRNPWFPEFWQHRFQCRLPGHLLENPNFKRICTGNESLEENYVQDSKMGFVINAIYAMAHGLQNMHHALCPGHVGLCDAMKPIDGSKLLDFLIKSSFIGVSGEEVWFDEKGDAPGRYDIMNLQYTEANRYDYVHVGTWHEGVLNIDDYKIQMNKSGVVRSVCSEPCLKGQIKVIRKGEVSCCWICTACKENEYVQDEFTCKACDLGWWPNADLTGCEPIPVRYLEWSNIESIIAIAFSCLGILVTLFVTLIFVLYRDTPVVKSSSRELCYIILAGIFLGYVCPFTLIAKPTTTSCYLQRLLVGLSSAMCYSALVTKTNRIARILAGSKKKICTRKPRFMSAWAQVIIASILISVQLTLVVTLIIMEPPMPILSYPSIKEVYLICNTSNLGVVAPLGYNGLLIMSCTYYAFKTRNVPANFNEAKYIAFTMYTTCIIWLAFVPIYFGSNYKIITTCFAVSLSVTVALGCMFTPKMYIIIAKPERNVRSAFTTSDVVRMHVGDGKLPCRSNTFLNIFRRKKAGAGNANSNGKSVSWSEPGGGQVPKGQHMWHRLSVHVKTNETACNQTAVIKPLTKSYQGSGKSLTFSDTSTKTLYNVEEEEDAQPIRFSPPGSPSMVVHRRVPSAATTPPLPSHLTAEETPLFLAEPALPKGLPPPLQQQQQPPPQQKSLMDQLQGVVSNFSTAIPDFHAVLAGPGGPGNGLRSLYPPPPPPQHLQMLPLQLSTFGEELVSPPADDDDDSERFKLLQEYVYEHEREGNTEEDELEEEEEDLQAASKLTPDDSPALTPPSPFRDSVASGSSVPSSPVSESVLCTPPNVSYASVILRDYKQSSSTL
Metabotropic glutamate receptor 7 (Homo sapiens), sequence (Q14831 whole entry): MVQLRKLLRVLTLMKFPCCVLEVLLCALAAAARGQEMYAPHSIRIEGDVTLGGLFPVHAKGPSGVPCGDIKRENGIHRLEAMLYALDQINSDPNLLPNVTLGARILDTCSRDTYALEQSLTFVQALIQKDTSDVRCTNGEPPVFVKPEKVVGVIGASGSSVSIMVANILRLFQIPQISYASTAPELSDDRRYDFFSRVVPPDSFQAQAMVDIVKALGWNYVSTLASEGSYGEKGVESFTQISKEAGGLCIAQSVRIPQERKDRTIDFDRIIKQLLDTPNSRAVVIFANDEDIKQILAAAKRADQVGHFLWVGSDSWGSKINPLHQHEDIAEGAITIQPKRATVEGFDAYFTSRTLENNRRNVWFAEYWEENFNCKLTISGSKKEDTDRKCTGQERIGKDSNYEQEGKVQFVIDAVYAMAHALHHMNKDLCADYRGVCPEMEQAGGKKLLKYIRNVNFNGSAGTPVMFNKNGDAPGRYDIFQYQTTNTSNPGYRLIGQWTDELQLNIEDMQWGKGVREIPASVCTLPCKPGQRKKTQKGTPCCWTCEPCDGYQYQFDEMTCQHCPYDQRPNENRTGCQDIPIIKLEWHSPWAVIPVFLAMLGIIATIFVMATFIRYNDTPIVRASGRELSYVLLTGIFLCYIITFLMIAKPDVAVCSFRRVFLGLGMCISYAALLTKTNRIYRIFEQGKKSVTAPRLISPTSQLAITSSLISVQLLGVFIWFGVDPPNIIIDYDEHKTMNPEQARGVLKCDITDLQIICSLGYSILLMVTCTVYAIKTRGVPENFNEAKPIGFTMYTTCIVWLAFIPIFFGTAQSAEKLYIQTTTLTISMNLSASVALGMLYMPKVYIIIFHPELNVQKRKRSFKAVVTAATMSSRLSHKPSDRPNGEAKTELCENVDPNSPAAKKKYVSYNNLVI

Compound | IC50 [1] | %max [2] | further results
Cn1ccc(NC(=O)c2cc(F)cc(C#N)c2)n1 | > 10000 nM | 46.7% | –
N#Cc1cc(F)cc(C(=O)Nc2ccncc2)c1 | > 30000 nM | – | –
CC(C)(C)c1cccc(NC(=O)c2cc(F)cc(C#N)c2)c1 | > 30000 nM | – | –
Cc1cnc(NC(=O)c2cc(F)cc(C#N)c2)s1 | 863 nM | 17.5% | –
N#Cc1cc(F)cc(C(=O)Nc2cccc(Cl)n2)c1 | 250 nM | 2.2% | –
N#Cc1cc(F)cc(C(=O)Nc2cccc(F)c2)c1 | 2160 nM | 22.1% | –
COc1cccc(NC(=O)c2cc(F)cc(C#N)c2)n1 | 1510 nM | 17.3% | –
N#Cc1cc(F)cc(C(=O)Nc2nc(C3CC3)cs2)c1 | 900 nM | 1.5% | –
N#Cc1cc(F)cc(C(=O)Nc2ccccc2F)c1 | > 30000 nM | – | –
CS(=O)(=O)c1cccc(NC(=O)c2cc(F)cc(C#N)c2)c1 | > 30000 nM | – | –
Cc1ccnc(NC(=O)c2cc(F)cc(C#N)c2)c1 | > 10000 nM | 38.6% | –
CCc1cccc(NC(=O)c2cc(F)cc(C#N)c2)n1 | 505 nM | 1.7% | –
Cc1cc(C)nc(NC(=O)c2cc(F)cc(C#N)c2)c1 | > 30000 nM | – | –
N#Cc1cc(F)cc(C(=O)NC2CCCCC2)c1 | > 30000 nM | – | –
N#Cc1cc(F)cc(C(=O)Nc2cc(F)cc(Cl)c2)c1 | 1830 nM | 38.5% | –
N#Cc1cc(F)cc(C(=O)Nc2cccc(C(F)(F)F)n2)c1 | > 10000 nM | 19.6% | –
Cc1cccnc1NC(=O)c1cc(F)cc(C#N)c1 | > 30000 nM | – | –
N#Cc1cc(F)cc(C(=O)Nc2ccc(F)cc2)c1 | > 10000 nM | 69.2% | –
Cc1ccc(NC(=O)c2cc(F)cc(C#N)c2)cc1 | > 30000 nM | – | –
N#Cc1cc(F)cc(C(=O)Nc2ccon2)c1 | > 30000 nM | – | –
N#Cc1cc(F)cc(C(=O)Nc2ccc(F)c(Cl)c2)c1 | 377 nM | 43% | –
COc1cccc(NC(=O)c2cc(F)cc(C#N)c2)c1 | > 10000 nM | 35.5% | –

Compound | IC50 [1] | %max [2] | further results
N#Cc1cc(F)cc(C(=O)Nc2cc(Cl)ccc2F)c1 | 3780 nM | 29.8% | –
Cc1cccc(NC(=O)c2cc(F)cc(C#N)c2)n1 | 65 nM | 1.2% | Ki [3]: 157 nM; inhibition [4]: inactive; inhibition [5]: inactive; inhibition [6]: inactive; inhibition [7]: inactive; inhibition [8]: inactive; inhibition [9]: inactive; remaining at 0.25 h, 1 µM [10]: 46.5%; remaining at 0.25 h, 1 µM [11]: 7%; PPB (Plasma [12]): 84%; PPB (Plasma [13]): 89.9%
N#Cc1cc(F)cc(C(=O)Nc2cccc(Cl)c2)c1 | 45 nM | 0.6% | Ki [3]: 206 nM; inhibition [4]: inactive; inhibition [5]: inactive; inhibition [6]: inactive; inhibition [7]: inactive; inhibition [8]: inactive; inhibition [9]: inactive; remaining at 0.25 h, 1 µM [10]: 96.8%; remaining at 0.25 h, 1 µM [11]: 18%; PPB (Plasma [12]): 93.7%; PPB (Plasma [13]): 97.1%; Cmax (Plasma [14]): 970 ng/mL; Cmax [15]: 1090 ng/mL; Tmax (Plasma [16]): 15 min; Tmax (Brain): 15 min; AUC(0-t) at 4 h [17]: 1200 ng·h/mL; AUC(0-t) at 4 h [18]: 1710 ng·h/mL; Kp [19]: 1.4
N#Cc1cc(F)cc(C(=O)NC2C3CC4CC(C3)CC2C4)c1 (stereo unspecified) | > 10000 nM | 34.7% | –
N#Cc1cc(F)cc(C(=O)Nc2cccc(Cl)c2F)c1 | 347 nM | 2.5% | –
N#Cc1cc(F)cc(C(=O)Nc2cccc(C(F)(F)F)c2)c1 | 543 nM | 0.9% | –
Cc1ccccc1NC(=O)c1cc(F)cc(C#N)c1 | > 30000 nM | – | –
N#Cc1cc(F)cc(C(=O)Nc2ccccn2)c1 | 3010 nM | 5.4% | –
Cc1cccc(NC(=O)c2cc(F)cc(C#N)c2)c1 | 122 nM | 2.1% | Ki [3]: 100 nM; inhibition [4]: inactive; inhibition [5]: inactive; inhibition [6]: inactive; inhibition [7]: inactive; inhibition [8]: inactive; inhibition [9]: inactive; remaining at 0.25 h, 1 µM [10]: 69.7%; remaining at 0.25 h, 1 µM [11]: 19.5%; PPB (Plasma [12]): 95.3%; PPB (Plasma [13]): 98.3%
CCc1cccc(NC(=O)c2cc(F)cc(C#N)c2)c1 | 4940 nM | 2.4% | –
N#Cc1cc(F)cc(C(=O)Nc2ccccc2Cl)c1 | > 30000 nM | – | –
N#Cc1cc(F)cc(C(=O)Nc2nccs2)c1 | > 10000 nM | 37.4% | –
N#Cc1cc(F)cc(C(=O)Nc2cccnc2)c1 | > 30000 nM | – | –
N#Cc1cccc(NC(=O)c2cc(F)cc(C#N)c2)c1 | 489 nM | 1.4% | –
N#Cc1cc(F)cc(C(=O)Nc2ccc(Cl)cc2)c1 | > 30000 nM | – | –
COc1ccc(NC(=O)c2cc(F)cc(C#N)c2)cc1 | > 30000 nM | – | –
Cc1nc(NC(=O)c2cc(F)cc(C#N)c2)sc1C | 594 nM | 2.4% | –
COc1ccccc1NC(=O)c1cc(F)cc(C#N)c1 | > 30000 nM | – | –
Cc1csc(NC(=O)c2cc(F)cc(C#N)c2)n1 | 59 nM | 1% | Ki [3]: 102 nM; inhibition [4]: inactive; inhibition [5]: inactive; inhibition [6]: inactive; inhibition [7]: inactive; inhibition [8]: inactive; inhibition [9]: inactive; remaining at 0.25 h, 1 µM [10]: 89.9%; remaining at 0.25 h, 1 µM [11]: 70.3%; PPB (Plasma [12]): 92.4%; PPB (Plasma [13]): 98.4%; Cmax (Plasma [14]): 7650 ng/mL; Cmax [15]: 28800 ng/mL; Tmax (Plasma [16]): 15 min; Tmax (Brain): 15 min; AUC(0-t) at 4 h [17]: 17800 ng·h/mL; AUC(0-t) at 4 h [18]: 73000 ng·h/mL; Kp [19]: 4.1
CC(C)(C)c1csc(NC(=O)c2cc(F)cc(C#N)c2)n1 | > 10000 nM | 29.7% | –
N#Cc1cc(F)cc(C(=O)Nc2ccccc2)c1 | 5440 nM | 12.5% | –
C#Cc1cccc(NC(=O)c2cc(F)cc(C#N)c2)c1 | 331 nM | 2.3% | –
